Results: US9045650B2, “Polymer with salt groups and antifouling coating composition comprising said polymer” (AKZO NOBEL COATINGS INTERNATIONAL B.V., priority 2008, dated 2015)

Test: Salt formation of monomeric salts analysed by spectroscopic methods (IR, 1H NMR) and observation on mixing
Assay type: physicochemical
Conditions: solid sample, ATR
Description: The monomeric salt was analysed using infra-red (IR) spectroscopy (solid sample analysis using Avatar 360 infra-red spectrometer with Golden Gate diamond ATR attachment).
In an effort to further illustrate the relationship between acid/base pKa and the stability of the resulting polymer, a series of monomeric salts was prepared and analysed by spectroscopic methods.
Each of the monomeric salts were prepared by mixing the constituent acid/base starting materials in methanol at a concentration of 1.968 M. Following the addition of the acid/base starting materials, the mixture was stirred at room temperature for 24 h. The monomeric salt was then isolated by evaporation of the solvent.
^1H NMR spectroscopy was carried out on a CDCl3 solution of the monomeric salt (0.0827 M). Peaks associated with resonances for both CH2 groups present in the DMAEMA moiety were seen to shift downfield in the spectrum of this sample when compared to the reference spectrum of the DMAEMA starting material (CH2—CH2—NMe2 δ 4.25 shifted to δ 4.6 and CH2—CH2—NMe2 δ 2.6 shifted to δ 3.5). […] This is attributed to the change in the chemical environment of the CH2 resonances as a result of the complete protonation of the neighbouring NMe2 moiety.

SMILES | salt formation by IR spectroscopy
C=C(C)C(=O)NCCCN(C)C.CCCCCCCCCCCCCCCC(=O)O [Comparative Example A (monomeric salt)] | incomplete salt formation
C=C(C)C(=O)NCCCN(C)C.CCCCCC(=O)O [Comparative Example C] | incomplete salt formation
